Measurements reported in patent US12358893B2, “Metalloenzyme inhibitor compounds” (Corxel Pharmaceuticals Hong Kong Limited, priority 2019, dated 2025).

Assays:
[1] = biological target: T1, recombinant human CYP11B2 (Homo sapiens, UniProt P19099); assay: CYP11B2 enzyme assay with enzyme enriched microsomes, aldosterone measured by LC-MS; format: biochemical; settings: microsomes from V79-4 cells; 11-deoxycorticosterone at Km; read-out: hCYP11B2 IC50
T1 construct: made in house; host or cells: V79-4 cells (Chinese hamster lung fibroblasts); enzyme-enriched microsomal fraction of the lysate
T1 sequence (P19099 25-503): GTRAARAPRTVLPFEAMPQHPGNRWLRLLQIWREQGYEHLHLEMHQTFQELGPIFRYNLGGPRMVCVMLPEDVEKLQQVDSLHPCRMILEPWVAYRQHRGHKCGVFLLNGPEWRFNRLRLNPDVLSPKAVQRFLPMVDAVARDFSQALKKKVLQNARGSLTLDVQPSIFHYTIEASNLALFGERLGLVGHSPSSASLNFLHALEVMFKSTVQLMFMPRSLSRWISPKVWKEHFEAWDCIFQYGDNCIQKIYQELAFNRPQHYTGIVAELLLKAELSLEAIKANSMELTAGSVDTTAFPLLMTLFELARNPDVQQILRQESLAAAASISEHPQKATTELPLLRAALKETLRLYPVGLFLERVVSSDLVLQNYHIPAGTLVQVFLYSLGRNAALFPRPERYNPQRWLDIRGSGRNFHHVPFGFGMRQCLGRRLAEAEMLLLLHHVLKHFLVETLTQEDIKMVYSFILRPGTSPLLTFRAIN
Description: (§1) V79-4 cells expressing recombinant andrenodoxin and andrenodoxin reductase with either recombinant human CYP11B2 or CYP11B1 were prepared according to methods previously described (LaSala et al 2009 Anal Bioch 394:56-61). An enzyme enriched microsomal fraction was prepared from cellular lysates and subsequently used as the enzyme source for determining inhibitor IC50s. The substrate Km values were experimentally determined for 11-deoxycorticosterone (CYP11B2 substrate) and 11-deoxycortisol (CYP11B1 substrate). Enzyme assays for inhibitor screening employed CYP11B2 and CYP11B1 enzyme enriched microsomes and were run at the Km of the respective substrates. Products of the enzyme reactions, aldosterone for CYP11B2 or cortisol for CYP11B1, were measured by LC-MS. Assays were run under conditions of less than 20% substrate turnover. Inhibitor IC50s were generated by determining the product formation in the absence or presence of inhibitor at various concentrations. In the absence of the test compound, the product formed (Pt) in each data set was defined as 100% activity. In the absence of enzyme, the product formed (Pb) in each data set was defined as 0% activity. The percent activity in the presence of each inhibitor was calculated according to the following equation: % activity=(P−Pb)/(Pt−Pb), where P=the product formed in the presence of the inhibitor. The IC50 value was defined as the inhibitor concentration causing a 50% decrease in activity relative to the no inhibitor control reaction.

[2] = biological target: T2, recombinant human CYP11B1 (Homo sapiens, UniProt P15538); assay: CYP11B1 enzyme assay with enzyme enriched microsomes, cortisol measured by LC-MS; format: biochemical; settings: microsomes from V79-4 cells; 11-deoxycortisol at Km; read-out: hCYP11B1 IC50
T2 construct: made in house; host or cells: V79-4 cells (Chinese hamster lung fibroblasts); enzyme-enriched microsomal fraction of the lysate
T2 sequence (P15538 25-503): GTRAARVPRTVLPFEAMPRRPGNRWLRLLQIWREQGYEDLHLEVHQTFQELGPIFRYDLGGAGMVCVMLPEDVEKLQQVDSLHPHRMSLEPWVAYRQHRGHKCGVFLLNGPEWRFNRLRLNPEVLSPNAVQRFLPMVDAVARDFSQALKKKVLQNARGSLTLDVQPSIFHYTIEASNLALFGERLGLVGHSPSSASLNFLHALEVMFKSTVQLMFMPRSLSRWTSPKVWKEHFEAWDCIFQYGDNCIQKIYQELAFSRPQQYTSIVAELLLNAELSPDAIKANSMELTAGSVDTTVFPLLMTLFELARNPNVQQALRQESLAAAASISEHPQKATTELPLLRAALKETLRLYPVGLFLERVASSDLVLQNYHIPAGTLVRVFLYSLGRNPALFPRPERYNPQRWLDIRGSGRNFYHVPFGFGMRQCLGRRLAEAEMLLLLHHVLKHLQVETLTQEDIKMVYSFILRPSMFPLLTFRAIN
Description: as §1

IC50 [1]	IC50 [2]	SMILES
1 to 100 nM	100 to 1000 nM	Fc1cc2nc(-n3cnc4ccccc43)n(C3CC3)c2cc1F [Example 16, 1′-cyclopropyl-5′,6′-difluoro-1′H-1,2′-bibenzo[d]imidazole]
1000 to 10000 nM	> 10000 nM	O=C(O)c1cc2c(cn1)ncn2-c1nc2cc(F)c(F)cc2n1C1CC1 [Example 39, 1-(1-cyclopropyl-5,6-difluoro-1H-benzo[d]imidazol-2-yl)-1H-imidazo[4,5-c]pyridine-6-carboxylic acid]
1 to 100 nM	100 to 1000 nM	Cc1ccc2c(c1)ncn2-c1nc2ccc(F)cc2n1C1CC1 [Example 8, 1′-cyclopropyl-6′-fluoro-5-methyl-1′H-1,2′-bibenzo[d]imidazole]
1 to 100 nM	100 to 1000 nM	Fc1ccc2c(c1)ncn2-c1nc2ccc(F)cc2n1C1CC1 [Example 18, 1′-cyclopropyl-5,6′-difluoro-1′H-1,2′-bibenzo[d]imidazole]
1 to 100 nM	100 to 1000 nM	Fc1cc2nc(-n3cnc4cc(OC(F)F)ccc43)n(C3CC3)c2cc1F [Example 52, 1′-cyclopropyl-5-(difluoromethoxy)-5′,6′-difluoro-1′H-1,2′-bibenzo[d]imidazole]
1 to 100 nM	100 to 1000 nM	CCc1ccc2c(c1)ncn2-c1nc2ccc(F)cc2n1C1CC1 [Example 10, 1′-cyclopropyl-5-ethyl-6′-fluoro-1′H-1,2′-bibenzo[d]imidazole]
1 to 100 nM	> 10000 nM	N#Cc1ccc2nc(-n3cnc4cnccc43)n(C3CC3)c2c1 [Example 43, 1-cyclopropyl-2-(1H-imidazo[4,5-c]pyridin-1-yl)-1H-benzo[d]imidazole-6-carbonitrile]
1 to 100 nM	100 to 1000 nM	COc1ccc2ncn(-c3nc4ccc(F)cc4n3C3CC3)c2c1 [Example 13, 1′-cyclopropyl-6′-fluoro-6-methoxy-1′H-1,2′-bibenzo[d]imidazole]
1 to 100 nM	100 to 1000 nM	Fc1ccc2nc(-n3cnc4cc(C(F)(F)F)ccc43)n(C3CC3)c2c1 [Example 20, 1′-cyclopropyl-6′-fluoro-5-(trifluoromethyl)-1′H-1,2′-bibenzo[d]imidazole]
1 to 100 nM	100 to 1000 nM	COc1ccc2c(c1)ncn2-c1nc2ccc(F)cc2n1C1CC1 [Example 12, 1′-cyclopropyl-6′-fluoro-5-methoxy-1′H-1,2′-bibenzo[d]imidazole]
1000 to 10000 nM	> 10000 nM	O=C(O)c1ccc2c(c1)ncn2-c1nc2cc(F)c(F)cc2n1C1CC1 [Example 44, 1′-cyclopropyl-5′,6′-difluoro-1′H-[1,2′-bibenzo[d]imidazole]-5-carboxylic acid]
1 to 100 nM	1000 to 10000 nM	Fc1cc2nc(-n3cnc4ccc(OC(F)F)cc43)n(C3CC3)c2cc1F [Example 53, 1′-cyclopropyl-6-(difluoromethoxy)-5′,6′-difluoro-1′H-1,2′-bibenzo[d]imidazole]
100 to 1000 nM	> 10000 nM	CS(=O)(=O)Nc1ccc2c(c1)ncn2-c1nc2cc(F)c(F)cc2n1C1CC1 [Example 46, N-(1′-cyclopropyl-5′,6′-difluoro-1′H-[1,2′-bibenzo[d]imidazol]-5-yl) methanesulfonamide]
1 to 100 nM	> 10000 nM	CS(=O)(=O)Nc1ccc2c(c1)ncn2-c1nc2ccc(F)c(F)c2n1C1CC1 [Example 31, N-(1′-cyclopropyl-6′,7′-difluoro-1′H-[1,2′-bibenzo[d]imidazol]-5-yl) methanesulfonamide]
1000 to 10000 nM	> 10000 nM	Cc1cccc2c1ncn2-c1nc2ccc(F)cc2n1C1CC1 [Example 14, 1′-cyclopropyl-6′-fluoro-4-methyl-1′H-1,2′-bibenzo[d]imidazole]
1 to 100 nM	1000 to 10000 nM	N#Cc1ccc2c(c1)ncn2-c1nc2ccc(F)cc2n1C1CC1 [Example 6, 1′-cyclopropyl-6′-fluoro-1′H-[1,2′-bibenzo[d]imidazole]-5-carbonitrile]
100 to 1000 nM	> 10000 nM	N#Cc1ccc2ncn(-c3nc4ccc(F)cc4n3C3CC3)c2c1 [Example 7, 1′-cyclopropyl-6′-fluoro-1′H-[1,2′-bibenzo[d]imidazole]-6-carbonitrile]
1 to 100 nM	1000 to 10000 nM	Fc1cc2nc(-n3cnc4ccncc43)n(C3CC3)c2cc1F [Example 36, 3-(1-cyclopropyl-5,6-difluoro-1H-benzo[d]imidazol-2-yl)-3H-imidazo[4,5-c] pyridine]
1 to 100 nM	1000 to 10000 nM	N#Cc1ccc2nc(-n3cnc4cc(F)c(F)cc43)n(C3CC3)c2c1 [Example 25, 1′-cyclopropyl-5,6-difluoro-1′H-[1,2′-bibenzo[d]imidazole]-6′-carbonitrile]
1 to 100 nM	1000 to 10000 nM	Fc1ccc2ncn(-c3nc4ccc(F)cc4n3C3CC3)c2c1 [Example 19, 1′-cyclopropyl-6,6′-difluoro-1′H-1,2′-bibenzo[d]imidazole]
1 to 100 nM	> 10000 nM	N#Cc1ccc2nc(-n3cnc4ccncc43)n(C3CC3)c2c1 [Example 42, 1-cyclopropyl-2-(3H-imidazo[4,5-c]pyridin-3-yl)-1H-benzo[d]imidazole-6-carbonitrile]
1 to 100 nM	1000 to 10000 nM	Fc1cc2ncn(-c3nc4ccc(F)c(F)c4n3C3CC3)c2cc1F [Example 15, 1′-cyclopropyl-5,6,6′,7′-tetrafluoro-1′H-1,2′-bibenzo[d]imidazole]
1 to 100 nM	1000 to 10000 nM	Fc1cc2nc(-n3cnc4cc(C(F)F)ncc43)n(C3CC3)c2cc1F [Example 41, 3-(1-cyclopropyl-5,6-difluoro-1H-benzo[d]imidazol-2-yl)-6-(difluoromethyl)-3H-imidazo[4,5-c]pyridine]
1000 to 10000 nM	> 10000 nM	Fc1cc2nc(-n3cnc4ncccc43)n(C3CC3)c2cc1F [Example 34, 1-(1-cyclopropyl-5,6-difluoro-1H-benzo[d]imidazol-2-yl)-1H-imidazo[4,5-b]pyridine]
1 to 100 nM	1000 to 10000 nM	Fc1cc2ncn(-c3nc4cc(F)c(F)cc4n3C3CC3)c2cc1F [Example 17, 1′-cyclopropyl-5,5′,6,6′-tetrafluoro-1′H-1,2′-bibenzo[d]imidazole]
1000 to 10000 nM	> 10000 nM	CS(=O)(=O)N(c1ccc2c(c1)ncn2-c1nc2ccc(F)c(F)c2n1C1CC1)S(C)(=O)=O [Example 30, N-(1′-cyclopropyl-6′,7′-difluoro-1′H-[1,2′-bibenzo[d]imidazol]-5-yl)-N-(methylsulfonyl) methanesulfonamide]
100 to 1000 nM	> 10000 nM	Fc1ccc2nc(-n3cnc4ccc(OC(F)(F)F)cc43)n(C3CC3)c2c1 [Example 28, 1′-cyclopropyl-6′-fluoro-6-(trifluoromethoxy)-1′H-1,2′-bibenzo[d]imidazole]
1 to 100 nM	1000 to 10000 nM	Fc1ccc2nc(-n3cnc4ccc(C(F)(F)F)cc43)n(C3CC3)c2c1 [Example 21, 1′-cyclopropyl-6′-fluoro-6-(trifluoromethyl)-1′H-1,2′-bibenzo[d]imidazole]
1 to 100 nM	1000 to 10000 nM	Fc1cc2ncn(-c3nc4ccc(Cl)nc4n3C3CC3)c2cc1F [Example 29, 5-chloro-3-cyclopropyl-2-(5,6-difluoro-1H-benzo[d]imidazol-1-yl)-3H-imidazo[4,5-b] pyridine]
1 to 100 nM	100 to 1000 nM	Fc1ccc2nc(-n3cnc4ccccc43)n(C3CC3)c2c1 [Example 1, 1′-cyclopropyl-6′-fluoro-1′H-1,2′-bibenzo[d]imidazole]
